{"source": "patent US4401666A", "about": "(priority 1982, dated 1983)", "key": {"[1]": {"system": "Klebsiella pneumoniae", "procedure": "(§1) Bacterial isolates for these studies were obtained from the New York State Mastitis Control Program, a division of veterinary clinical services of the New York State College of Veterinary Medicine, Cornell University. Samples were from cows with clinical mastitis or from milk cows that were cultured for a routine herd survey. Mastitis pathogens were identified by the use of standard bacteriologic technique^(1).\n(§2) Concentrations inhibiting growth by 50% were determined using broth dilution test procedures^(2). Briefly 0.1 ml of cultures containing approximately 9×10^6 organisms/ml were inoculated into 10 mls of Tryptose-soy broth^(3) containing either 0, 1, 10, 100, or 1000 ppm of zinc pyridine-2-thione-N-oxide. These tubes were incubated at 37° C. for 18 hours and optical densities were read at 550 nanometers. Blanks for each test level consisted of a Tryptose-soy broth tube with the same concentration of test material. Concentrations of test material inhibiting growth by 50% were computed by probit analysis^(4)."}, "[2]": {"system": "Escherichia coli", "procedure": "as §1, §2"}, "[3]": {"system": "Staphylococcus aureus", "conditions": "37° C., 18 h, 5 isolates", "procedure": "as §1, §2"}, "[4]": {"system": "Pseudomonas aeruginosa", "conditions": "37° C., 18 h, 2 isolates", "procedure": "as §1, §2"}, "[5]": {"system": "microorganisms which cause bovine mastitis", "conditions": "broth", "procedure": "as §1, §2"}, "[6]": {"system": "Yeast Group", "assay": "Broth dilution growth inhibition (MIC), isolates from mastitic cows", "assay_type": "cell-based", "conditions": "37° C., 18 h, 5 isolates"}, "[7]": {"conditions": "bovine, in vivo"}, "[8]": {"system": "S. aureus", "assay": "MIC in sterile, homogenized, skim milk", "assay_type": "cell-based, Staphylococcus aureus", "conditions": "37° C., 4 h", "procedure": "(§3) Cultures of E. coli and S. aureus were isolated from mammary glands of cows with mastitis. Cultures were streaked on blood agar plates and incubated for 24 hours at 37° C. Colonies from these plates were inoculated into nutrient broth tubes and incubated at 37° C. overnight. One-tenth milliliter aliquots of these cultures were inoculated into 10 milliliter tubes of sterile, homogenized, skim milk containing various concentrations of zinc pyridine-2-thione-N-oxide. The concentrations of this active compound ranged from 0.01 ppm to 100 ppm and were made by serially diluting a 1% by weight aqueous suspension of zinc pyridine-2-thione-N-oxide in 10 milliliter portions of sterile skim milk.\n(§4) The milk tubes containing bacteria and zinc pyridine-2-thione-N-oxide were incubated in a shaking water bath at 37° C. for 4 hours; at the end of the incubation period, 0.1 ml of the milk incubate was added to 2 ml of soft agar (0.75% by weight agar and the rest being water) and plated on blood agar plates. These plates were incubated at 37° C. for 18 hours and the microorganisms present on each plate were counted with an NBS Automatic Colony Counter."}, "[9]": {"system": "udder of normal, lactating cows", "conditions": "bovine, in vivo"}, "[10]": {"system": "rats", "conditions": "cited from earlier work"}, "[11]": {"system": "udder of healthy, lactating cow", "conditions": "bovine, in vivo"}, "[12]": {"system": "E. coli", "assay": "MIC in sterile, homogenized, skim milk", "assay_type": "cell-based, Escherichia coli", "conditions": "37° C., 4 h", "procedure": "as §3, §4"}, "[13]": {"conditions": "Tryptose-soy broth, 37° C., 18 h, 3 isolates"}, "[14]": {"conditions": "Tryptose-soy broth, 37° C., 18 h, 5 isolates"}}}
{"compound": "[Na+].[O-][n+]1ccccc1[S-]", "note": "[sodium pyridine-2-thione-N-oxide, 2-pyridinethiol-1-oxide, Na salt]", "values": [{"measurement": "50% by Weight Growth Inhibited", "setting": "[1]; Table 1A, broth, 37° C., 18 h, 3 isolates", "result": "5.2 ± 0.8"}, {"measurement": "50% by Weight Growth Inhibited", "setting": "[2]; Table 1A, broth, 37° C., 18 h, 5 isolates", "result": "3.4 ± 0.8"}, {"measurement": "50% by Weight Growth Inhibited", "setting": "[3]; Table 1A, broth", "result": "< 1.0"}, {"measurement": "50% by Weight Growth Inhibited", "setting": "[4]; Table 1A, broth", "result": "38.0 ± 5.2"}, {"measurement": "effectiveness against microorganisms which cause bovine mastitis", "setting": "[5]", "result": "effective"}, {"measurement": "50% by Weight Growth Inhibited", "setting": "[6]; Table 1A, broth", "result": "< 1.0"}]}
{"compound": "[O-]n1ccccc1=S.[O-]n1ccccc1=S.[Zn+2]", "note": "[zinc pyridine-2-thione-N-oxide, bis[1-hydroxy-2(1H)pyridinethionato]zinc]", "values": [{"measurement": "disappearance from the milk", "setting": "[7]", "result": "relative quick disappearance from the milk"}, {"measurement": "residual amounts in milk expected at lower infused amounts", "setting": "[7]", "result": "may be expected to be lower"}, {"measurement": "residual content in milk, summary", "setting": "[7]", "result": "very low levels"}, {"measurement": "50% by Weight Growth Inhibited (concentration inhibiting growth by 50%)", "setting": "[1]; [13]", "result": "2.1 ± 0.3", "unit": "ppm"}, {"measurement": "100% by Weight Growth Inhibited (MIC)", "setting": "[1]; [13]", "result": "10-20 ppm"}, {"measurement": "effectiveness against K. pneumoniae", "setting": "[1]; broth", "result": "especially effective"}, {"measurement": "50% by Weight Growth Inhibited (concentration inhibiting growth by 50%)", "setting": "[2]; [14]", "result": "2.5 ± 0.5", "unit": "ppm"}, {"measurement": "100% by Weight Growth Inhibited (MIC)", "setting": "[2]; [14]", "result": "13-20 ppm"}, {"measurement": "effectiveness against E. coli", "setting": "[2]; broth", "result": "especially effective"}, {"measurement": "50% by Weight Growth Inhibited (concentration inhibiting growth by 50%)", "setting": "[3]; Tryptose-soy broth", "result": "< 1.0", "unit": "ppm"}, {"measurement": "100% by Weight Growth Inhibited (MIC)", "setting": "[3]; Tryptose-soy broth", "result": "5-10 ppm"}, {"measurement": "50% by Weight Growth Inhibited (concentration inhibiting growth by 50%)", "setting": "[4]; Tryptose-soy broth", "result": "9.6 ± 6.4", "unit": "ppm"}, {"measurement": "100% by Weight Growth Inhibited (MIC)", "setting": "[4]; Tryptose-soy broth", "result": "80-100 ppm"}, {"measurement": "effectiveness against microorganisms which cause bovine mastitis", "setting": "[5]", "result": "effective"}, {"measurement": "MIC at 95% Inhibition of Growth", "setting": "[8]", "result": 10, "unit": "ppm"}, {"measurement": "MIC at 100% Inhibition of Growth", "setting": "[8]", "result": 100, "unit": "ppm"}, {"measurement": "CMT scores, overall", "setting": "[9]", "result": "increased CTM scores"}, {"measurement": "CMT values at 504 hours after the first dose", "setting": "[9]", "result": "Normal values"}, {"measurement": "adverse effects on cow's udder", "setting": "[9]", "result": "some adverse effects on cow's udder"}, {"measurement": "change in CMT scores", "setting": "[9]", "result": "increase"}, {"measurement": "flakes and clots in milk", "setting": "[9]", "result": "produced flakes and clots in milk"}, {"measurement": "milk output", "setting": "[9]", "result": "depressed milk output"}, {"measurement": "milk production", "setting": "[9]", "result": "reduced more dramatically than the 1% infusion"}, {"measurement": "overall effects compared with 1% infusion", "setting": "[9]", "result": "in general similar to 1% infusion except with increased severity"}, {"measurement": "systemic effects", "setting": "[9]", "result": "no systemic effects were noted"}, {"measurement": "warmth of the udder", "setting": "[9]", "result": "felt warm"}, {"measurement": "LD50", "setting": "[10]", "result": 200, "unit": "mg/kg"}, {"measurement": "change in CMT scores", "setting": "[11]", "result": "very slight rise"}, {"measurement": "effect on CMT scores", "setting": "[11]", "result": "no effect"}, {"measurement": "effect on other physical observations", "setting": "[11]", "result": "no effect"}, {"measurement": "firmness of the udder to palpation", "setting": "[11]", "result": "increased firmness of the udder to palpation"}, {"measurement": "irritation caused to the udder", "setting": "[11]", "result": "low irritation"}, {"measurement": "MIC at 95% Inhibition of Growth", "setting": "[12]", "result": 10, "unit": "ppm"}, {"measurement": "MIC at 100% Inhibition of Growth", "setting": "[12]", "result": 100, "unit": "ppm"}, {"measurement": "50% by Weight Growth Inhibited (concentration inhibiting growth by 50%)", "setting": "[6]; Tryptose-soy broth", "result": "< 1.0", "unit": "ppm"}, {"measurement": "100% by Weight Growth Inhibited (MIC)", "setting": "[6]; Tryptose-soy broth", "result": "3-6 ppm"}]}
